The Kinase Knowledgebase extract (Sharma et al. 2016)
pIC50: −log10 of the molar value.

Target: ROCK2 (human) (UniProt O75116)
Test: Inhibition of ROCK2 Kinase Activity

Chain of ROCK2 (human) (O75116 whole entry, looked up): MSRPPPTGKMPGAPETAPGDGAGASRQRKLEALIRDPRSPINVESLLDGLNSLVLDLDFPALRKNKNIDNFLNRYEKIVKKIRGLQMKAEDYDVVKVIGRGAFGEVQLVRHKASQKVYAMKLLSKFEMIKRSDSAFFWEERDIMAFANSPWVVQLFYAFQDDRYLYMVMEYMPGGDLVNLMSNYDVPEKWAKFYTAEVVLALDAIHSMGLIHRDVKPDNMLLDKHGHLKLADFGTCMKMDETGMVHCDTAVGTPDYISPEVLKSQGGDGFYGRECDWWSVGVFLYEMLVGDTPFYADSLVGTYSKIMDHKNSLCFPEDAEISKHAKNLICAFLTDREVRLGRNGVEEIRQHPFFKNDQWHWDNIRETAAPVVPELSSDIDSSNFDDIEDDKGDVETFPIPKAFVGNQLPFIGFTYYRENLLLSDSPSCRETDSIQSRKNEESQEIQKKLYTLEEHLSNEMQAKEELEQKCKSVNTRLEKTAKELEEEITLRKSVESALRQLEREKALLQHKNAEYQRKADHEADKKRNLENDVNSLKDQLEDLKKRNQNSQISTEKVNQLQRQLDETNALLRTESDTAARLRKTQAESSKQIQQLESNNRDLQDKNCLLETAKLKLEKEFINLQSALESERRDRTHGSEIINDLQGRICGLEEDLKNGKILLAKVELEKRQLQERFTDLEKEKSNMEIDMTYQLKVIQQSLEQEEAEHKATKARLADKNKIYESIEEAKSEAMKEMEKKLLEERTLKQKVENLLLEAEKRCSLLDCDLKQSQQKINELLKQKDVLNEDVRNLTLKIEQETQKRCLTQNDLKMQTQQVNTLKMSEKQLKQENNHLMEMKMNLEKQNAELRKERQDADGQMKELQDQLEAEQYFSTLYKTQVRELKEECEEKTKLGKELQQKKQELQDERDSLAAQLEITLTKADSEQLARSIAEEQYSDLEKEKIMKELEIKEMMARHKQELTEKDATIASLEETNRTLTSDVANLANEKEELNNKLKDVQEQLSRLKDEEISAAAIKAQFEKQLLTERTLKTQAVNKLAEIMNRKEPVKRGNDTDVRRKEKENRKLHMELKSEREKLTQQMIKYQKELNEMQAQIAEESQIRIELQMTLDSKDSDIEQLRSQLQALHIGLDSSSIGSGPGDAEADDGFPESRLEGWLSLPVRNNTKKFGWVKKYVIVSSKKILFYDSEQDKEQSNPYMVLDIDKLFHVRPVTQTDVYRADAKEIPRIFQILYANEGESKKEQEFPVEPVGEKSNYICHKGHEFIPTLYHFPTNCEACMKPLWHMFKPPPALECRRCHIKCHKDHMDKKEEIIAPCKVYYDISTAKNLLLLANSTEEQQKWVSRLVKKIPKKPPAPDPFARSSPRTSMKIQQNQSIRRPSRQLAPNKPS

SMILES | pIC50
NC(CC(=O)NCc1ccc(OC(F)(F)F)cc1)c1ccc(C(=O)Nc2ccncc2)cc1 (stereo unspecified) | 6.30 to 7.30
NC(CC(=O)Nc1cc(-c2ccco2)[nH]n1)c1ccc(C(=O)Nc2ccncc2)cc1 (stereo unspecified) | 6.30 to 7.30
COc1ccc(CC(=O)N2CCCC2C(N)c2ccc(C(=O)Nc3ccncc3)cc2)cc1 (stereo unspecified) | 6.30 to 7.30
NC(c1ccc(C(=O)Nc2ccncc2)cc1)C1CCCN1C(=O)Cc1ccc(F)cc1F (stereo unspecified) | 6.30 to 7.30
CN(CC(N)c1ccc(C(=O)Nc2ccncc2)cc1)C(=O)C1(c2ccc(F)c(F)c2)CCC1 (stereo unspecified) | 5.30 to 6.30
NC(c1ccc(C(=O)Nc2ccncc2)cc1)C1CCCN1C(=O)C1(c2ccc(Cl)c(Cl)c2)CC1 (stereo unspecified) | 5.30 to 6.30
CCCC(=O)NCC(N)c1ccc(C(=O)Nc2ccncc2)cc1 (stereo unspecified) | 5.30 to 6.30
NC(CNC(=O)C1CCOc2ccc(F)cc21)c1ccc(C(=O)Nc2ccncc2)cc1 (stereo unspecified) | 6.30 to 7.30
NC(CNC(=O)C1CCSc2ccccc21)c1ccc(C(=O)Nc2ccncc2)cc1 (stereo unspecified) | 6.30 to 7.30
CN(CC(N)c1ccc(C(=O)Nc2ccncc2)cc1)C(=O)Cc1c(F)cccc1Cl (stereo unspecified) | 5.30 to 6.30
NC(CC(=O)NCc1cc(Cl)ccc1Cl)c1ccc(C(=O)Nc2ccncc2)cc1 (stereo unspecified) | 6.30 to 7.30
Cc1cccc(Cl)c1CNC(=O)CC(N)c1ccc(C(=O)Nc2ccncc2)cc1 (stereo unspecified) | 6.30 to 7.30
CC(C)(C(=O)NCC(N)c1ccc(C(=O)Nc2ccncc2)cc1)c1ccc(F)cc1F (stereo unspecified) | 6.30 to 7.30
CCNS(=O)(=O)c1cccc(C(=O)NCC(N)c2ccc(C(=O)Nc3ccncc3)cc2)c1 (stereo unspecified) | 5.30 to 6.30
NC(CNC(=O)c1cccs1)c1ccc(C(=O)Nc2ccncc2)cc1 (stereo unspecified) | 6.30 to 7.30
NC(CNC(=O)C1(c2ccsc2)CC1)c1ccc(C(=O)Nc2ccncc2)cc1 (stereo unspecified) | 6.30 to 7.30
NC(CNC(=O)NCc1ccccc1)c1ccc(C(=O)Nc2ccncc2)cc1 (stereo unspecified) | 6.30 to 7.30
NC(CC(=O)NCCc1ccc(Cl)cc1)c1ccc(C(=O)Nc2ccncc2)cc1 (stereo unspecified) | 6.30 to 7.30
Nc1c(C(=O)NCC(N)c2ccc(C(=O)Nc3ccncc3)cc2)cnn1-c1ccc(F)cc1 (stereo unspecified) | 5.30 to 6.30
COc1cccc(CNC(=O)CC(N)c2ccc(C(=O)Nc3ccncc3)cc2)c1OC (stereo unspecified) | 6.30 to 7.30
NC(CC(=O)NCc1cc(Cl)cc(Cl)c1)c1ccc(C(=O)Nc2ccncc2)cc1 (stereo unspecified) | 6.30 to 7.30
NC(CNC(=O)c1ccoc1)c1ccc(C(=O)Nc2ccncc2)cc1 (stereo unspecified) | 6.30 to 7.30
Cc1cc(Cl)ccc1NC(=O)NCC(N)c1ccc(C(=O)Nc2ccncc2)cc1 (stereo unspecified) | 6.30 to 7.30
CC(=NOCC(=O)NCC(N)c1ccc(C(=O)Nc2ccncc2)cc1)c1ccccc1 (stereo unspecified) | 6.30 to 7.30
CC(CNC(=O)CC(N)c1ccc(C(=O)Nc2ccncc2)cc1)c1ccc(Cl)cc1 (stereo unspecified) | 6.30 to 7.30
COC(=O)C(C)NC(=O)CC(N)c1ccc(C(=O)Nc2ccncc2)cc1 (stereo unspecified) | 6.30 to 7.30

SMILES | pIC50
CC(C)C(C)NC(=O)CC(N)c1ccc(C(=O)Nc2ccncc2)cc1 (stereo unspecified) | 6.30 to 7.30
COc1cccc(CC(=O)NCC(N)c2ccc(C(=O)Nc3ccncc3)cc2)c1 (stereo unspecified) | 6.30 to 7.30
COc1cccc(CCNC(=O)CC(N)c2ccc(C(=O)Nc3ccncc3)cc2)c1 (stereo unspecified) | 6.30 to 7.30
CN(CC(N)c1ccc(C(=O)Nc2ccncc2)cc1)C(=O)C1(c2ccc(F)c(F)c2)CC1 (stereo unspecified) | 5.30 to 6.30
CN(CC(N)c1ccc(C(=O)Nc2ccncc2)cc1)C(=O)C1CCCc2ccccc21 (stereo unspecified) | 5.30 to 6.30
NC(CNC(=O)c1ccc(F)cc1)c1ccc(C(=O)Nc2ccncc2)cc1 (stereo unspecified) | 5.30 to 6.30
CC(C)(C(=O)N1CCCC1C(N)c1ccc(C(=O)Nc2ccncc2)cc1)c1ccc(F)cc1 (stereo unspecified) | 5.30 to 6.30
CCOc1ccccc1CCNC(=O)CC(N)c1ccc(C(=O)Nc2ccncc2)cc1 (stereo unspecified) | 6.30 to 7.30
NC(CC(=O)N(CCc1ccccc1)Cc1ccccc1)c1ccc(C(=O)Nc2ccncc2)cc1 (stereo unspecified) | 6.30 to 7.30
CN(CC(N)c1ccc(C(=O)Nc2ccncc2)cc1)C(=O)Cc1c[nH]c2ccccc12 (stereo unspecified) | 5.30 to 6.30
NC(CNC(=S)Nc1ccc(Cl)cc1)c1ccc(C(=O)Nc2ccncc2)cc1 (stereo unspecified) | 6.30 to 7.30
NC(CC(=O)NCc1ccccc1)c1ccc(C(=O)Nc2ccncc2)cc1 (stereo unspecified) | 6.30 to 7.30
COCC(C)NC(=O)CC(N)c1ccc(C(=O)Nc2ccncc2)cc1 (stereo unspecified) | 6.30 to 7.30
CN(CC(N)c1ccc(C(=O)Nc2ccncc2)cc1)C(=O)Cc1ccc(C(F)(F)F)cc1 (stereo unspecified) | 5.30 to 6.30
NC(CNC(=O)C1(c2ccc(F)c(F)c2)CCCC1)c1ccc(C(=O)Nc2ccncc2)cc1 (stereo unspecified) | 6.30 to 7.30
NC(CC(=O)NCc1ccc(-c2cccs2)cc1)c1ccc(C(=O)Nc2ccncc2)cc1 (stereo unspecified) | 6.30 to 7.30
NC(CNC(=O)c1nccc2ccccc12)c1ccc(C(=O)Nc2ccncc2)cc1 (stereo unspecified) | 5.30 to 6.30
NC(CC(=O)NC1CCCc2ccccc21)c1ccc(C(=O)Nc2ccncc2)cc1 (stereo unspecified) | 6.30 to 7.30
N[C@H](CC(=O)N[C@H]1COc2ccccc21)c1ccc(C(=O)Nc2ccncc2)cc1 | 6.30 to 7.30
NC(CC(=O)NCc1cccc(OC(F)(F)F)c1)c1ccc(C(=O)Nc2ccncc2)cc1 (stereo unspecified) | 6.30 to 7.30
CC[C@@H](NC(=O)CC(N)c1ccc(C(=O)Nc2ccncc2)cc1)c1ccc(C)cc1 (stereo partly specified) | 6.30 to 7.30
NC(c1ccc(C(=O)Nc2ccncc2)cc1)C1CCCN1C(=O)C1(c2ccc(Cl)cc2F)CC1 (stereo unspecified) | 5.30 to 6.30
NC(CNC(=O)C1CCOC1)c1ccc(C(=O)Nc2ccncc2)cc1 (stereo unspecified) | 5.30 to 6.30
CN(CC(N)c1ccc(C(=O)Nc2ccncc2)cc1)C(=O)Cc1ccc(Cl)cc1Cl (stereo unspecified) | 5.30 to 6.30
NC(c1ccc(C(=O)Nc2ccncc2)cc1)C1CCCN1C(=O)C1(c2ccc(Cl)c(Cl)c2)CCC1 (stereo unspecified) | 5.30 to 6.30
